Assays:
[1] = Thermostability of aqueous lipid solutions; format: physicochemical; details: exposed to temperature below 10° C. or above 25° C.
Text: EP-0351651 describes the use of PEG-C8/C10-glycerides as an absorption promoter for insulin. Especially for orally and buccally administered insulin. From the disclosure it appears that an increase in concentration of PEG-C8/C10-glycerides results in an increase in absorption. With respect to a nasal composition the composition described has a relatively high concentration of absorption enhancer, namely about 50% w/w. WO2003070280 (Absorption enhancing agent) describes the use of PEG-C8/C10-glycerides as absorption promoter for e.g. sumatriptan, in most preferred concentrations of 0.1-10%. Here, the function of PEG-C8/C10-glycerides should not promote absorption, since that will remove the active ingredient from the surface such as the mucosal surface, and into the systemic circulation. However, PEG-C8/C10 is able to act as a thermostabilizer for formulations containing lipids that are insoluble in water.

Staphylococcus aureus = details: cited from earlier work
Staphylococcus epidermis = details: cited from earlier work
Streptococci A = details: cited from earlier work
Streptococci pyogenes = details: cited from earlier work
Haemophilus influenzae = details: cited from earlier work
Streptococcus D = details: cited from earlier work
Streptococcus mutans = details: cited from earlier work
Streptococcus pneumoniae = details: cited from earlier work
Corynebacteria sp. = details: cited from earlier work
Nococardia asteroides = details: cited from earlier work
Micrococcus sp. = details: cited from earlier work
Pseudomonas aeruginosa = details: cited from earlier work
Listeria monocytogenes = details: cited from earlier work
Lactobacillus jensenii = details: cited from earlier work
Chlamydia trachomatis = details: cited from earlier work
Neisseria gonorrhoeae = details: cited from earlier work
Helicobacter pylori = details: cited from earlier work
Campylobacter jejuni = details: cited from earlier work
Candida albicans (yeast) = details: cited from earlier work
[2] = tested on: Herpes virus type 1 (HSV-1); details: cited from earlier work
[3] = tested on: Herpes virus type 2 (HSV-2); details: cited from earlier work
[4] = tested on: Respiratory syncytial virus (RSV); details: cited from earlier work
Influenza A virus = details: cited from earlier work
[5] = tested on: Parainfluenza virus type 2; details: cited from earlier work

In the case of CCCCCCCCCC(=O)OCC(O)CO (stereo not shown) [monocaprin], the “precipitation in aqueous formulations” value [1] is listed as “will easily precipitate”, the bactericidal effect (Staphylococcus aureus) is listed as “bacteriocid” and the bactericidal effect (Staphylococcus epidermis) is listed as “bacteriocid”. The bactericidal effect (Streptococci A) was “bacteriocid”, the bactericidal effect (Streptococci pyogenes) was “bacteriocid” and the bactericidal effect (Haemophilus influenzae) was “bacteriocid”. For the same molecule, the effectiveness against microbe (Streptococcus D) was “effective”, the effectiveness against microbe (Streptococcus mutans) was “effective” and the effectiveness against microbe (Streptococcus pneumoniae) was “effective”. For the same molecule, the effectiveness against microbe (Corynebacteria sp.) was “effective”, the effectiveness against microbe (Nococardia asteroides) was “effective” and the effectiveness against microbe (Micrococcus sp.) was “effective”. The effectiveness against microbe (Pseudomonas aeruginosa) was “effective”, the effectiveness against microbe (Listeria monocytogenes) was “effective” and the effectiveness against microbe (Lactobacillus jensenii) was “effective”. For the same molecule, the effectiveness against microbe (Chlamydia trachomatis) was “effective”, the effectiveness against microbe (Neisseria gonorrhoeae) was “effective” and the effectiveness against microbe (Helicobacter pylori) was “effective”. The effectiveness against microbe (Campylobacter jejuni) was “effective”, the effectiveness against microbe (Candida albicans (yeast)) was “effective” and the effectiveness against virus [2] was “effective”. The effectiveness against virus [3] was “effective”, the effectiveness against virus [4] was “effective” and the effectiveness against virus (Influenza A virus) was “effective”. The effectiveness against virus [5] was “effective”.
